In US6887878B2, “KMST isoeugenol derivatives and pharmaceutical activity” (Ing-Jun Chen, priority 2003, dated 2005):
“Also recorded” adds a separate entry of the source. Like-named read-outs stand apart in the source and are kept apart here.

What was measured:
[1] = test system: lipid peroxidation in rat brain homogenate; test: lipid peroxidation initiated by Fe2+-ascorbic acid in rat brain homogenates (TBARS); format: biochemical
Method: Rat brain homogenate was made in 0.9% saline containing 10 mg tissue/ml. The rates of membrane lipid peroxidation were measured by the formation of thiobarbituric acid (TBA)-reactive substance (TBARS). Rat brain homogenates (1 ml) were incubated at 37° C. for 5 min with 10 μl of test compound or vehicle. […] After 30 min of incubation, the reaction was stopped by adding 0.1 ml of 0.2% BHT. TBA reagent was then added and the mixture was heated for 30 min in a boiling water bath. […] The amount of TBARS was quantified using the linear regression obtained from malondialdehyde (MDA) standards.

5-HT1B = biological target: T1, 5-HT1B (Rattus norvegicus, UniProt P28564); test: [3H]GR125743 receptor binding in rat cortex; parameters: species or system Wistar rat; settings: [3H]GR125743 (5-HT1B/1D), rat cortex; read-out: Ki 5-HT1B
T1 construct: from tissue; host or cells: Wistar rat cortex membranes
T1 sequence (P28564 whole entry): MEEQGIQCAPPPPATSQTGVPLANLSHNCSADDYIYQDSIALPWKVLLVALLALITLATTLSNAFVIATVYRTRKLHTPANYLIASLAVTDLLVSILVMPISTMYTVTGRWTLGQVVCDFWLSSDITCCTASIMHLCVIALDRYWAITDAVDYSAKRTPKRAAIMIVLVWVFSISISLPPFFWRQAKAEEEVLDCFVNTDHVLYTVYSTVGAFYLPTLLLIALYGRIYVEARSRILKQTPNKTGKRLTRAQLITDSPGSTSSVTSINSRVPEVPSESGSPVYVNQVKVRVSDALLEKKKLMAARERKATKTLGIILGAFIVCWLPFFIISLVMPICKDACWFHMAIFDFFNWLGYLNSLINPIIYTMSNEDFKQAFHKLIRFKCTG
Method: (§1) The homogenate was pressure filtered through muslin. Filtrate was centrifuged at 1000 g for 10 min. […] Protein content was determined by Bradford's method.

5-HT1A = biological target: T2, 5-HT1A (Rattus norvegicus, UniProt P19327); test: [3H]WAY100635 receptor binding; settings: read-out: Ki 5-HT1A; [3H]WAY100635
T2 sequence (P19327 1-422): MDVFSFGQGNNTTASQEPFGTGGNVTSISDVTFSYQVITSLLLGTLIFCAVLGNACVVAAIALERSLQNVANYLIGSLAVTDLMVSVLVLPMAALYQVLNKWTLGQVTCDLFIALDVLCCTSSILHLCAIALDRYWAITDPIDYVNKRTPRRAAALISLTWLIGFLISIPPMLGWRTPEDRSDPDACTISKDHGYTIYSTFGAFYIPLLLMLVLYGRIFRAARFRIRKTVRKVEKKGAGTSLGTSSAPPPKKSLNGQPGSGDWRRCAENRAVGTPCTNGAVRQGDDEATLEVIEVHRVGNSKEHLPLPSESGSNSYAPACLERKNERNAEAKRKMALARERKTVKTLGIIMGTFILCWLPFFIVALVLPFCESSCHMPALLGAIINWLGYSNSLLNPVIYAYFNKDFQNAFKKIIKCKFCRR

α2-adrenergic receptor = test: clonidine-induced contraction in isolated rat thoracic aorta (pA2); parameters: species or system Wistar rat; settings: Schild plot, mean ± SEM of eight, listed as KMST
Method: Clonidine, noradrenaline and serotonin (10^−8˜10^−4 M) were added to the bath to induce contractions after pretreatment with KMST for 15 min.

5-HT re-uptake = biological target: T3, 5-HT re-uptake (Rattus norvegicus, UniProt P31652); test: 5-HT re-uptake in cerebral cortex synaptosomes; format: biochemical, Wistar rat; settings: read-out: IC50 of 5-HT uptake inhibition
T3 construct: the cerebral cortex or striatum was dissected and crude synaptosomes were prepared; from tissue; host or cells: crude synaptosomes of Wistar rat cerebral cortex
T3 sequence (P31652 whole entry): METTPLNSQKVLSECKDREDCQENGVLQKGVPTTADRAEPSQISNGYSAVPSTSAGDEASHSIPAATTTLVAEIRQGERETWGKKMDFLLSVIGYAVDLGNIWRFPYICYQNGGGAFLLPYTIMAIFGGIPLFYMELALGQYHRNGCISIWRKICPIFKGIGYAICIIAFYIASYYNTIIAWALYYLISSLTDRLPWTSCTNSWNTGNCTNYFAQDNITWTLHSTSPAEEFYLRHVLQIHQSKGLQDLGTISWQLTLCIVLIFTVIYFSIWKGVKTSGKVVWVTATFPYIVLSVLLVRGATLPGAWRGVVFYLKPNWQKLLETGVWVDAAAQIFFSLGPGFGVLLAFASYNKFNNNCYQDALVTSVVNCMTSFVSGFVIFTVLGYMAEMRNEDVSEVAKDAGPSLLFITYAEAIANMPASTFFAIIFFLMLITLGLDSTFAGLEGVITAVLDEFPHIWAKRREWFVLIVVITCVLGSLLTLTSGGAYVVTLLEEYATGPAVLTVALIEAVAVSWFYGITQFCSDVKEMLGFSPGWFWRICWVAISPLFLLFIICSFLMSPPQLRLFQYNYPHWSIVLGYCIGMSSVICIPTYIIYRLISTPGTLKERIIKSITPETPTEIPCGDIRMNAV
Method: Wistar rats weighting 150-200 g were decapitated, the cerebral cortex or striatum was dissected and crude synaptosomes were prepared. […] Uptake was initiated by the addition of 50 μl of [^3H] […] Saline was added to the incubation mixture, which was then filtered through a Whatman GF/B glass filter under reduced pressure. To determine nonspecific uptake, incubation was performed at 0° C.

M2 = M2 receptor binding; parameters: species or system guinea pig
rats = test: LPS-induced mortality; settings: rat, in vivo
β1 receptors = biological target: T4, β1 receptors (Rattus norvegicus, UniProt P18090); test: [3H]CGP-12177 receptor binding in rat ventricle; parameters: species or system Wistar rat; settings: [3H]CGP-12177, rat ventricle
T4 construct: from tissue; host or cells: Wistar rat heart (ventricle) membranes
T4 sequence (P18090 whole entry): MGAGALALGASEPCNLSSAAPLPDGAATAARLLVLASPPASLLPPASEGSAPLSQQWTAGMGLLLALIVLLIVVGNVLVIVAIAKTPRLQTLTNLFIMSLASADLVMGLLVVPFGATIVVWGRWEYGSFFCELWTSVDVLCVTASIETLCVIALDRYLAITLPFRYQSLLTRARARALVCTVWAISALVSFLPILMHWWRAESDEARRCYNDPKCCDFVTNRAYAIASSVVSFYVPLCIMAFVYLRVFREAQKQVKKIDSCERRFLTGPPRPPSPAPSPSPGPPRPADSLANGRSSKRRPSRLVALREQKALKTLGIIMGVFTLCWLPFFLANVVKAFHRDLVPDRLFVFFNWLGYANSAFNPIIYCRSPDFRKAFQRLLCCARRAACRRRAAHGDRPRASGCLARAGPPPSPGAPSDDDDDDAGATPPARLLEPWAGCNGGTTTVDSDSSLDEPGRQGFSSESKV
Method: as §1

[2] = test system: phenylephrine-induced contractions in rat thoracic aorta; test: LPS-induced vascular hyporeactivity: phenylephrine-induced contractions in rat thoracic aorta; format: in vivo, Wistar rat; settings: for pD2 at 3rd hr / pD2 at 5th hr: pD2 to phenylephrine
[3] = test system: pentobarbital-anesthetized rats; test: intravenous injection in pentobarbital-anesthetized rats, BP and HR; format: in vivo, Wistar rat; settings: intravenous administration
Method: In brief, Wistar rats weighing 250-300 g were anesthetized with pentobarbital sodium (50 mg kg^−1, i.p.). Following tracheal cannulation, systemic arterial BP and HR were recorded from the femoral artery by a pressure transducer (model P10EZ; Spectramed, Oxnard, Calif., U.S.A.) connected to a recorder (GOULD, Valley View, Ohio, Model P50). Body temperature was maintained at 37° C. by an electric heating pad. A femoral vein was cannulated for intravenous injection of drugs and LPS (10 mg kg^−1).

α2 receptors = test: [3H]yohimbine receptor binding in rat cortex; parameters: species or system Wistar rat
Method: as §1

α1 receptors = test: [3H]prazosin receptor binding in rat cortex; parameters: species or system Wistar rat
Method: as §1

[4] = test system: serotonin-induced human platelet aggregation; test: serotonin-induced human platelet aggregation; format: cell-based; settings: serotonin 5 μM, PRP; read-out: IC50 serotonin-induced human platelet aggregation
Method: Venous blood from human volunteer donors was collected in 10 ml Monovette containing 1 ml citrate solution (0.106M trisodium citrate; Sarstedt, Nümbrecht, Germany) and centrifuged (400 g, 10 min, 20° C.). […] After centrifugation (10 min, 2000 g, 20° C.), the platelet pellet was resuspended in wishing buffer (113 mM NaCl, 4 mM Na2HPO4, 24 mM NaH2PO4, 4 mM KCl, 0.2 mM EGTA(Ethylene glycol-bis-(2-aminoethyl ether) N,N,N′-tetraacetic acid), 0.1% (wt/vol) glucose, pH 6.0) and recentrifuged (10 min, 2000 g, 20° C.). The washed platelets were resuspended in incubation buffer (134 mM NaCl, 12 mM NaHCO3, 2.9 mM KCl, 0.34 mM NaH2PO4, 5 mM HEPES (N-(2-hydroxyethyl) piperazine-N′-(2-ethanesulfonic acid)), 5 mM glucose, pH7.4), cells were counted in a Sysmex hematology analyzer (Sysmex, CDA-500, Japan) and adjusted to a final concentration of 2×10^8 platelets/ml.
The aggregation of the platelets in platelet-rich plasma (PRP) was measured as a change in light absorbance by a Payton dual-channel aggregometer (NBS, Hema tracer, Japan). PRP (240 μL) was stirred (700 rpm) at 37° C. for 1 min, and 5 μL epinephrine (final concentration 5 μM), serotonin (final concentration 5 μM) was added. After which the rate of primary aggregation (1/min) and maximum aggregation (%) at 5 min were recorded. To study the effects of compounds on epinephrine or serotonin-induced aggregation, PRP was incubated with 5 μL of compounds at various concentrations for 1 min before epinephrine or serotonin was added. IC50 values given were calculated from the secondary aggregation data.

[5] = agent given after LPS injection (1 hr)
[6] = agent given before LPS injection (30 min)

## CC=Cc1ccc(OCC(O)CN2CCN(c3cccc(Cl)c3)CC2)c(OC)c1 (centres unmarked) [Compound 1]
[1]; rat brain homogenate
  potency of KMST relative to ascorbic acid, lipid peroxidation: ~3 times
  potency of KMST relative to trazodone, lipid peroxidation: ~30 times
  potency of KMST relative to yohimbine, lipid peroxidation: approximately 5 times
[1]; rat brain homogenates, listed as KMST, read-out: IC50 inhibiting lipid peroxidation initiated by Fe2+-ascorbic acid
  IC50: 2.68 µM
5-HT1B
  Ki: 0.67 µM
5-HT1A
  Ki: > 10 µM
α2-adrenergic receptor
  α2 pA2 value: 7.40±0.38
5-HT re-uptake
  IC50: 34.3 µM
M2
  Ki: > 10 µM
rats
  LPS-induced death: did not prevent
  survival time after LPS: did prolong survival time
β1 receptors
  Ki: 0.0728 µM
[2]; 1 mg kg−1 i.v. before or after application of LPS, listed as KMST
  aortic contractility of LPS-treated rats versus vehicle group: improved the aortic contractility better than in vehicle group; also recorded: increased aortic contractility more than the vehicle group
[2]; [5]
  pD2 at 3rd hr: 6.29 ± 0.08
  pD2 at 5th hr: 5.57 ± 0.17
[2]; [6]
  pD2 at 3rd hr: 7.16 ± 0.18
  pD2 at 5th hr: 6.29 ± 0.11
[3]
  mean BP and HR: dose-dependent decrease
  phenylephrine- and isoprenaline-induced changes in BP and HR: inhibited
α2 receptors
  Ki: 1.84 µM
α2 receptors; listed as KMST
  Ki: 1.39 µM
α1 receptors
  Ki: 0.142 µM
[4]
  IC50: 0.00363 µM
